What was measured:
recombinant Mini-LOX III = biological target: T1, recombinant Mini-LOX III (Triticum aestivum, UniProt F1DTB8); assay: conjugated diene absorbance at […] nm, Lineweaver-Burk; assay type: biochemical; details: crude yeast extract in 50 mM phosphate pH 7.6 (extraction buffer); methods print linoleic acid range as 10 mM to 70 mM, conflicting with Km in µM
T1 construct: gene LOX3; cut placed by alignment to soybean Mini-LOX STPIEFHSFQ; pGK423, S. cerevisiae BY4741; crude soluble extract
T1 sequence (F1DTB8 343-878 limits assumed): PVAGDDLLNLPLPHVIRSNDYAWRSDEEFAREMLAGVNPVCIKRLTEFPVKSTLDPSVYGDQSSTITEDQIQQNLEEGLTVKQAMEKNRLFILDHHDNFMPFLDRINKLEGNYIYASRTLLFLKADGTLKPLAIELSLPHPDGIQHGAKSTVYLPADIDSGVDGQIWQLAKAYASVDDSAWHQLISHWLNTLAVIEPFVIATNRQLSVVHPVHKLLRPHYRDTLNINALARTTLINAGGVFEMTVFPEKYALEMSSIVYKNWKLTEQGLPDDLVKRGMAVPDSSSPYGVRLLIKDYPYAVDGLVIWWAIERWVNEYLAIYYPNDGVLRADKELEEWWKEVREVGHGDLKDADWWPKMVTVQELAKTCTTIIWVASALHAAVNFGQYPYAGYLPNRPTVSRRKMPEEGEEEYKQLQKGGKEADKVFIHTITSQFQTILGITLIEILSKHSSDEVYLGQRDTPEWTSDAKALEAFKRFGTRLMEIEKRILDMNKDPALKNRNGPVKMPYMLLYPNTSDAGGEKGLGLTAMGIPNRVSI

recombinant LOX III = biological target: T2, recombinant LOX III (Triticum aestivum, UniProt F1DTB8); assay: as above; assay type: biochemical; details: crude yeast extract in 50 mM phosphate pH 7.6 (extraction buffer); methods print linoleic acid range as 10 mM to 70 mM, conflicting with Km in µM
T2 construct: gene LOX3; full length, 878 residues, 95 kDa; codon-optimised; LOX III-2A-mClover3 in pGK423, S. cerevisiae BY4741; crude soluble extract
T2 sequence (F1DTB8 1-878): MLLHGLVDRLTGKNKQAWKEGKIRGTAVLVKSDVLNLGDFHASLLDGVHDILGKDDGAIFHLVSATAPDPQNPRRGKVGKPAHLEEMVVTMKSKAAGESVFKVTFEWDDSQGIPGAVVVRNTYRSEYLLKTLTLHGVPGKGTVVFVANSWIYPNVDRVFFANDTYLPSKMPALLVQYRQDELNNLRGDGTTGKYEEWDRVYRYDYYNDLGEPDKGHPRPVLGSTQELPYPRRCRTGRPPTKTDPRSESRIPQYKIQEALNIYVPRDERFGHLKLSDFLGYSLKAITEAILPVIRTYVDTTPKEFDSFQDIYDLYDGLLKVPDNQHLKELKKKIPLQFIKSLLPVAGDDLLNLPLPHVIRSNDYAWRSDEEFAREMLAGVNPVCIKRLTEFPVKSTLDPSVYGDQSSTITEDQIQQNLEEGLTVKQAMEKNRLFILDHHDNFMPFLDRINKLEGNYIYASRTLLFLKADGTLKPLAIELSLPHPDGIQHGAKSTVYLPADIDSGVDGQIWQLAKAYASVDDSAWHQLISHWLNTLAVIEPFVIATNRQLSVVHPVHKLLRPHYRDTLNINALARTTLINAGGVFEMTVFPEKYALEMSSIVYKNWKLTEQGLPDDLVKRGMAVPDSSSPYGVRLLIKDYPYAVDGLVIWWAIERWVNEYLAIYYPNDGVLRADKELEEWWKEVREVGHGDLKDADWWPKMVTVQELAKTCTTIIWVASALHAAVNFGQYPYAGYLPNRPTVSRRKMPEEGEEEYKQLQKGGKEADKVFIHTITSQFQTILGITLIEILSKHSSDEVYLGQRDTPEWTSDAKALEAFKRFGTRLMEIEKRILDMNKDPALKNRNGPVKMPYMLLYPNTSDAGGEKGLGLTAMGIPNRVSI

Km (recombinant Mini-LOX III): 21.3 µM
Km (recombinant LOX III): 25.7 µM
SMILES: CCCCC/C=C\C/C=C\CCCCCCCC(=O)O [linoleic acid]

Reference: PMC10847848, “Production of recombinant intact and N-terminal truncated lipoxygenase isozyme III expressed in Saccharomyces cerevisiae and its influence on glutenin polypeptides” (Food Chemistry: Molecular Sciences, 2024)
